ChEMBL document CHEMBL2396543, “Development of time resolved fluorescence resonance energy transfer-based assay for FXR antagonist discovery” (Bioorg Med Chem, 2013)
Calls of active or inactive are those of the source.

Columns and labels:
[1] = target: T1, Bile acid receptor (Homo sapiens) (UniProt Q96RI1); test: Binding affinity to human GTS-tagged FXR LBD using fluorescein-tagged SRC2-2 at 10 nM after 15 to 30 mins by TR-FRET assay
T1 sequence (whole entry): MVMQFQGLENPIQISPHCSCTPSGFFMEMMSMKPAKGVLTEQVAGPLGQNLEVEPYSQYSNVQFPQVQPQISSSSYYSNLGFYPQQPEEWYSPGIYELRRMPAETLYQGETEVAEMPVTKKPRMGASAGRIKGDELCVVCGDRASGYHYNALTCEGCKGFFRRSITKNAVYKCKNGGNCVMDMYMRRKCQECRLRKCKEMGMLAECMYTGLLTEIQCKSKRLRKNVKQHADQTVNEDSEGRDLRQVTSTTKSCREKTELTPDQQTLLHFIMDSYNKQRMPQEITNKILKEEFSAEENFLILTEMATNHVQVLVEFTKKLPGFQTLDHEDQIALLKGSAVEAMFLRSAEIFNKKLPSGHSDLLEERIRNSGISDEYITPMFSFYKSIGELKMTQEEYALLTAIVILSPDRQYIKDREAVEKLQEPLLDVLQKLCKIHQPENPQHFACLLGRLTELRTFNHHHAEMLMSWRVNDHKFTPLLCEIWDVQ

[2] = target: T1, Bile acid receptor (Homo sapiens); test: Binding affinity to human GTS-tagged FXR LBD using fluorescein-tagged SRC2-2 at 10 nM after 15 to 30 mins by TR-FRET assay in presence of GW4064
[3] = target: T1, Bile acid receptor (Homo sapiens); test: Binding affinity to human GTS-tagged FXR LBD using fluorescein-tagged SRC2-2 at 10 nM after 15 to 30 mins by TR-FRET assay in presence of fexaramine

Measured: Activity

CC(C)c1onc(-c2c(Cl)cccc2Cl)c1COc1ccc(/C=C/c2cccc(C(=O)NNC(=S)Nc3ccc(-c4c5ccc(=O)cc-5oc5cc(O)ccc45)c(C(=O)O)c3)c2)c(Cl)c1
active: [1] | [2] | [3]
